This is an account of results in patent publication US6623741B1, “Methods and compositions for inhibition of membrane fusion-associated events including RSV transmission” (Trimeris, Inc., priority 2000, dated 2003).

Entries after “also recorded” stand apart in the source; their conditions may differ. Where two headings read alike, the source gives them in different places.

In data set [1] the target is T1, M41Δ178 fusion protein (DP107 domain of HIV gp41) (Human immunodeficiency virus type 1 group M subtype B, UniProt P03377).
T1 construct: made by cloning the DNA fragment corresponding to gp41 amino acids 540-642 into the Xmn I site of pMal-p2; made in house
T1 sequence (P03377 540-642, stated change not applied): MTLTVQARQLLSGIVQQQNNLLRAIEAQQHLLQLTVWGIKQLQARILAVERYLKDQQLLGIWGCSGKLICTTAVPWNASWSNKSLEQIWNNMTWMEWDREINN
Description: biochemical. The class given is binding, HIV-1. How it is done:
(§1) After incubation and washing, unbound Fab-d is removed from the plates and bound Fab-d is quantitated. A no-inhibitor control should also be conducted.
(§2) Such an assay takes advantage of accepted radioligand and receptor binding principles. (See, for example, Yamamura, H. I. et al., 1985, “Neurotransmitter Receptor Binding”, 2nd ed., Raven Press, NY.) As above, M41Δ78 is immobilized onto a solid support such as a microtiter well. […] Specific binding to M41Δ78 is defined as the difference of the binding of the labeled DP178 preparation in the microtiter wells (totals) and the binding in identical wells containing, in addition, excess unlabeled DP178 (nonspecifics).

In the next data set the test system is CEM cells. The data set is described as follows: Cell proliferation and toxicity assay. Type of data set: cell-based. The method, then: (§3) Cell proliferation and toxicity assay: Approximately 3.8×10^5 CEM cells for each peptide concentration were incubated for 3 days at 37° C. in T25 flasks. Peptides tested were DP178 (SEQ ID NO:15) and DP-116 (SEQ ID NO:1552), as described in FIG. 1. Peptides were synthesized as described, above, in Section 6.1. The concentrations of each peptide used were 0, 2.5, 10, and 40 μg/ml. Cell counts were taken at incubation times of 0, 24, 48, and 72 hours.
(§4) CEM cells were incubated in the presence of varying concentrations of DP178 (SEQ ID NO:15), and DP-116 (SEQ ID NO:1552), a peptide previously shown to be ineffective as an HIV inhibitor (Wild, C. et al., 1992, Proc. Natl. Acad. Sci. USA 89:10,537-10,541). Additionally, cells were incubated in the absence of either peptide.

For another data set, the system named is HIV-1LAI. The conditions noted are these: FIG. 1 legend. How it is done: Cell Free Virus Infection Assay:
Synthetic peptides were incubated at 37° C. with either 247 TCID50 (for experiment depicted in FIG. 2), or 62 TCID50 (for experiment depicted in FIG. 3) units of HIV-1LAI virus or 25 TCID50 units of HIV-2^NIHZ and CEM CD4^+ cells at peptide concentrations of 0, 0.04, 0.4, 4.0, and 40 μg/ml for 7 days. The resulting reverse transcriptase (RT) activity in counts per minute was determined using the assay described, below, in Section 6.1.5. See, Reed, L. J. et al., 1938, Am. J. Hyg. 27: 493-497 for an explanation of TCID50 calculations.
Reverse Transcriptase Assay:
The micro-reverse transcriptase (RT) assay was adapted from Goff et al. (Goff, S. et al., 1981, J. Virol. 38:239-248) and Willey et al. (Willey, R. et al., 1988, J. Virol. 62:139-147). Supernatants from virus/cell cultures are adjusted to 1% Triton-X100. A 10 μl sample of supernatant was added to 50 μl of RT cocktail in a 96-well U-bottom microtitre plate and the samples incubated at 37° C. for 90 min. The RT cocktail contained 75 mM KCl, 2 mM dithiothreitol, 5 mM MgCl2, 5 μg/ml poly A (Pharmacia, cat. No. 27-4110-01), 0.25 units/ml oligo dT (Pharmacia, cat. No. 27-7858-01), 0.05% NP40, 50 mM Tris-HCl, pH 7.8, 0.5 μM non-radioactive dTTP, and 10 μCi/ml ^32P-dTTP (Amersham, cat. No. PB. 10167).
After the incubation period, 40 μl of reaction mixture was applied to a Schleicher and Schuell (S+S) NA45 membrane (or DE81 paper) saturated in 2×SSC buffer (0.3 M NaCl and […] sodium citrate) held in a S+S Minifold over one sheet of GB003 (S+S) filter paper, with partial vacuum applied. Each well of the minifold was washed four times with 200 μl 2×SSC, under full vacuum. The membrane was removed from the minifold and washed 2 more times in a pyrex dish with an excess of 2×SSC. Finally, the membrane was drained on absorbent paper, placed on Whatman #3 paper, covered with Saran wrap, and exposed to film overnight at −70° C.
DP178 (SEQ ID NO:15) was next tested for its ability to block CD-4^+ CEM cell infection by cell-free HIV-1 virus. […]

Data set [2] can be described thus: Cell proliferation and toxicity assay. Type of data set: cell-based. Particulars: human, CEM cells. How it is done:
as §3, §4

The subject of data set [3] is HIV-1IIIB. The conditions noted are these: read-out: HIV-infectivity (IC90); HIV-1IIIB.
For data set [4], the system named is HIV-1IIIB. Type of data set: cell-based. The conditions noted are these: HIV-1 induced membrane fusion; read-out: Cell Fusion (IC90). How it is done:
Cell Fusion Assays For Anti-HIV Activity:
Cell fusion assays were performed as previously described (Matthews et al., 1987, Proc. Natl. Acad. Sci. USA 84: […]). CEM cells (7×10^4) were incubated with HIV-1IIIB chronically infected CEM cells (10^4) in 96-well flat-bottomed half-area plates (Costar) in 100 μl culture medium. Peptide and fusion proteins at various concentrations in 10 μl culture medium were incubated with the cell mixtures at 37° C. for 24 hours. Multinucleated syncytia were estimated with microscopic examination.

Data set [5] deals with T2, DP107-like domain of the RSV F1-protein (MF5.1 fusion protein) (Human respiratory syncytial virus A, UniProt P03420).
T2 construct: made in house
T2 sequence (P03420 142-302): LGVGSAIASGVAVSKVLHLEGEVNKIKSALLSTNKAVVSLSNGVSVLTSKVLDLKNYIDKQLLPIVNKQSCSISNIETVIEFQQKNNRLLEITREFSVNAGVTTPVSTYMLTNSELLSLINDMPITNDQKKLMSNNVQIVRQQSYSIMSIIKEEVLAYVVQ
The data set is described as follows: biochemical. The class given is binding. The method, then: as §1, §2
Specifically, the DNA sequence corresponding amino acid residues 142-302 of the RSV F1 protein was amplified by PCR and cloned into the Xmn I site of the expression vector pMal-p2 (New England Biolab) to give MF5.1. These amino acid residues correspond to the extracellular domain of the RSV F1 protein including its DP107 region but excluding the DP178 region.
Cell fusion assays were performed with each of the peptides as described in Section 17 above.

What is called Kd is a measure of binding affinity in units of concentration. One may read the viability as the share of living cells, or the viability signal relative to a control. By IC90 is commonly meant the concentration at which the effect reaches the 90% level.

Substance enfuvirtide displayed a Kd in data set [1] of 10 nM. The “% Viability” value in the data set on CEM cells (2.5 μg/ml, 0 hours) was determined as 98%; in the data set with CEM cells (2.5 μg/ml, 24 hours), 93%; in the data set on CEM cells (2.5 μg/ml, 48 hours), 96%; in the data set on CEM cells (2.5 μg/ml, 72 hours), 96%; in the data set on CEM cells (10 μg/ml, 0 hours), 98%; in the data set with CEM cells (10 μg/ml, 24 hours) it was 97%. In addition, the “% Viability” value with CEM cells (10 μg/ml, 48 hours) turned out to be 98%; in the data set on CEM cells (10 μg/ml, 72 hours) it was 98%; in the data set with CEM cells (40 μg/ml, 0 hours) it was 98%; in the data set on CEM cells (40 μg/ml, 24 hours), 97%; in the data set on CEM cells (40 μg/ml, 48 hours), 95%; in the data set with CEM cells (40 μg/ml, 72 hours) it was 97%. Also, in the data set on CEM cells (CEM cells, up to 40 μg/ml, 3 days), the “cytotoxic effects on cells in culture” value was “non-cytotoxic; also recorded: no cytotoxic effects”.

Take “Ac-LQARILAVERYLKDQQQ-NH2 [DP-116, reference compound]”: in the data set with HIV-1LAI, the “inhibition of HIV-1 cell free virus infection (in words)” value is “negative for inhibition of HIV-1 infection”. In addition, in data set [2] (2.5 μg/ml, 0 hours), the viability at 0 h, 2.5 µg/mL was 98%. In data set [2] (2.5 μg/ml, 24 hours), this substance returned a viability at 24 h, 2.5 µg/mL of 96%. The viability at 48 h, 2.5 µg/mL in data set [2] (2.5 μg/ml, 48 hours) amounted to 98%. Moreover, the viability at 72 h, 2.5 µg/mL in data set [2] (2.5 μg/ml, 72 hours) worked out at 99%. The substance further came in with a viability at 0 h, 10 µg/mL in data set [2] (10 μg/ml, 0 hours) of 98%. In data set [2] (10 μg/ml, 24 hours), the viability at 24 h, 10 µg/mL is 95%. The substance also gave a viability at 48 h, 10 µg/mL in data set [2] (10 μg/ml, 48 hours) of 93%. In data set [2] (10 μg/ml, 72 hours), this substance gave a viability at 72 h, 10 µg/mL of 98%. The viability at 0 h, 40 µg/mL in data set [2] (40 μg/ml, 0 hours) worked out at 98%. In addition, in data set [2] (40 μg/ml, 24 hours), the viability at 24 h, 40 µg/mL was found to be 95%. Further, the viability at 48 h, 40 µg/mL in data set [2] (40 μg/ml, 48 hours) was determined as 98%. The viability at 72 h, 40 µg/mL in data set [2] (40 μg/ml, 72 hours) came out at 97%.

On to “Ac-NNLLRAIEAQQHLLQLTVWGIKQLQARILAVERYLKDQ-NH2 [DP107]”, for which the concentration for an effect of 90% (IC90) with HIV-1IIIB [3] and in the data set on HIV-1IIIB [4] was 1000 nM throughout.

As to “Ac-VYPSDEFDASISQVNEKINQALAYIRKADELLHNV-NH2 [Peptide T1091]”, in data set [5], the “binding affinity relative to T112” value is reported as “approximately ten-fold less”.
